{"source": "patent US20250002532A1", "about": "“A NOVEL PEPTIDE AND THE USE THEREOF” (Rudacure Corporation, priority 2023, published 2025)", "key": {"hTRPV1": {"biological_target": "T1, hTRPV1 (Homo sapiens, UniProt Q8NER1)", "T1 construct": "expressed in transfected cells; the earlier reading calls it TRPV1 CHO-K1 cells", "T1 sequence (Q8NER1 whole entry)": "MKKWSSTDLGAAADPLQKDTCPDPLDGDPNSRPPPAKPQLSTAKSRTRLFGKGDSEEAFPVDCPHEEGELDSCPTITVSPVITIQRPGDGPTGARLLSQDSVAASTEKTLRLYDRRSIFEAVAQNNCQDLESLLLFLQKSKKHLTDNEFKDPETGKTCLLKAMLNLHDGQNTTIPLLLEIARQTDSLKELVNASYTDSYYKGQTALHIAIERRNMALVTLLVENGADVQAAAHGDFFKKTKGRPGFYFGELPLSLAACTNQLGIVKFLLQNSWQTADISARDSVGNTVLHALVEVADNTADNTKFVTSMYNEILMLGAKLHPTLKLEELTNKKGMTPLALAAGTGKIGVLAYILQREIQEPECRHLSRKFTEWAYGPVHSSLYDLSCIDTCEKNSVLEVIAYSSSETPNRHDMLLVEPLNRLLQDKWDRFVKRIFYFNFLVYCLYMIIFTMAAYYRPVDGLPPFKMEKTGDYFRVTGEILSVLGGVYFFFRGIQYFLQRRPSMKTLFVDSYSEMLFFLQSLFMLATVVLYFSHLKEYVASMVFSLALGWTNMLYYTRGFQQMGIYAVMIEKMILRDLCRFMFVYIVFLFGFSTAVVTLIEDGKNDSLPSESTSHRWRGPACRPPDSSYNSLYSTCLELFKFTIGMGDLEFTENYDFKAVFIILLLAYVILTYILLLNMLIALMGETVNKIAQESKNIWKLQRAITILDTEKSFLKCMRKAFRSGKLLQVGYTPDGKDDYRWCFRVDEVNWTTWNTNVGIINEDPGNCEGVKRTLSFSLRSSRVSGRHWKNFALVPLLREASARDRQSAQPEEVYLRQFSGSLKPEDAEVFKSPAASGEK", "assay": "Calcium imaging (Fura-2AM) of capsaicin-induced Ca2+ influx in TRPV1 CHO-K1 cells", "assay_type": "cell-based", "conditions": "for inhibition at 0.001 µM: peptide at 1 nM; for inhibition at 0.005 µM: peptide at 5 nM; for inhibition at 0.1 µM: peptide at 100 nM; for influx of calcium into TRPV1 channel (ΔF/F): FIG. 1, peptide injected; for TRPV1 inhibitory activity / inhibition rate (screening): screening of peptides", "description": "The TRPV1 inhibitory effect of various short-length peptides, including the 49 peptides in Tables 5 and 6, was evaluated by the following method.\nAll reagents used in cell culture were sterilized products. The culture medium of the cell line is shown in Table 7 below, and the culture was performed in a cell incubator with under the culture conditions of […] and 37° C. In addition, when cryopreserved cells (stock) were thawed and used, they were subcultured two to three times before use in the test.\nAfter removing the cell culture medium by suction, 10 ml DPBS was added to wash the cells, and then the DPBS was removed by suction. 2 ml 0.05% trypsin-EDTA was added, and then the cells were cultured in a cell incubator at 37° C. for three to five minutes. Through a microscope, detachment of the cells from the bottom surface of the culture dish was confirmed, and 8 ml of the cell culture medium including 10% FBS was added to inactivate the trypsin-EDTA. Cells in the culture dish were collected, pipetted, and transferred to a 15 ml tube.\nCentrifugation was performed at 800 rpm for five minutes, and all the supernatant except the cell pellet was removed. Then, the cell culture medium was added, and the pellet was carefully loosened.\nAfter measuring the number of cells with a hemocytometer, the cells were dispensed at 1×10^3 cells/10 μl/coverslip at the center of a 12 mm cover slip coated with poly-D-lysine.\nA 35π petri dish containing the cover slip was stored in a cell incubator, and when the cells were attached to the cover slip after one to two hours, 2 ml of the cell culture medium was added and stored in the cell incubator again.\nThe sample was added to 200 ml distilled water (DW) and mixed according to the composition in Table 8 below.\nThe pH was adjusted to a range of 7.3 to 7.4 using 5 N NaOH, and then distilled water (DW) was added to adjust the final volume to 250 ml.\nCapsaicin was dissolved in 100% ethanol to prepare a 10 mM stock. Capsaicin, a TRPV1 activating substance, was diluted in the extracellular solution to a concentration of 0.1-1 mM before using in the experiment.\nThe test material (peptide according to the present invention) was dissolved in a solvent and then diluted to an appropriate concentration in the extracellular solution before using in the experiment.\n2 mM Fura-2AM was prepared by adding 24.95 ml of DMSO to 50 mg of Fura 2AM powder, which is used as a membrane-permeable fluorescent marker. After the experiment, the remaining Fura-2AM was stored at −20° C. for reuse and covered with silver foil to prevent exposure to light.\n2 mM Fura-2AM was diluted 1/1000 in a cell culture medium without FBS and antibiotics to prepare 1 ml Fura-2AM (based on a 35π Petri dish) to a final concentration of […]. After removing the cell culture medium in the 35π Petri dish, the cells were washed once with 2 ml DPBS. 1 ml of the Fura-2AM solution prepared above was transferred to a 35π Petri dish, and the cells were cultured in a cell incubator for 40 min.\nTo operate calcium imaging equipment, an IRIS-9 camera was turned on and then a computer was powered on. To operate a perfusion system, a suction device was powered on, 20 to 30 ml of distilled water was added to each perfusion syringe, and suction was performed while allowing the distilled water to flow into the chamber (syringe wash).\nThe extracellular solution and test materials prepared in advance were placed in the syringes washed with distilled water, and smooth flow of the solutions from each syringe into the chamber was confirmed. At this time, clips were used to block all the lines except one syringe line to be checked. In other words, the flow of the solution through only a single syringe line without the clip was checked (When the solution flows through two or more lines, the solutions could have been mixed.)."}, "pain caused by capsaicin": {"tested_on": "pain caused by capsaicin", "assay": "Capsaicin test (pain behavioral response)", "assay_type": "in vivo, C57BL/6N mouse", "conditions": "0.5 mg/kg I.P. one hour before 0.01% capsaicin; 0 to 5 minutes; FIG. 5", "description": "An in vivo test was performed with the peptides of SEQ ID NOS: 5, 6, 9, and 11.\n• a. […] Preparation of positive control material: BCTC was homogeneously dissolved in a saline solution at a concentration of 3 mg/mL. • e.\n• a. Preparation of test materials: The peptides of SEQ ID NOS: 5, 6, 9, and 11 were dissolved in a saline solution to prepare at a concentration of 0.05 mg/mL. • b.\n• a. Saline solution, BCTC, and peptides of SEQ ID NOS: 5, 6, 9, and 11, the administered materials corresponding to each group, were administered in advance about one hour before capsaicin administration. • b. One hour after the test material administration to each group, 20 μL of 0.01% capsaicin was injected subcutaneously into the sole of the right foot. • c. After administering […] to each subject, the time at which pain behavioral responses (licking, biting, etc.) appeared was measured in the interval of 0 to 5 minutes. • d. Grooming in regions other than the region where capsaicin was administered was not counted. • e.\nIn a previous study, the pain inhibiting effect was confirmed through a formalin test. To confirm whether such pain inhibiting phenomenon is through TRPV1, the pain response pattern was investigated after subcutaneous injection of capsaicin, which is one of the TRPV1 activators."}, "SNL pain model": {"tested_on": "SNL pain model", "assay": "SNL pain model, Von Frey test", "conditions": "2 mg/kg I.P.; one, three and seven hours after administration; FIG. 7"}, "pain caused by formalin": {"tested_on": "pain caused by formalin", "assay": "Formalin test (pain behavioral response)", "assay_type": "in vivo, ICR mouse", "conditions": "2nd phase (20 to 40 minutes), vs saline group, FIG. 4", "description": "An in vivo test was performed with the peptides of SEQ ID NOS: 11 and 12.\n• a. […] Preparation of positive control material: Pregabalin was homogeneously dissolved in a saline solution at a concentration of 3 mg/mL. • e.\n• a. Saline solution, pregabalin, peptide of SEQ ID NO: 11, and peptide of SEQ ID NO: 12, the administered materials corresponding to each group, were administered in advance about one hour before formalin administration. • b. One hour after the test material administration to each group, 20 μL of 2% formalin was injected subcutaneously into the sole of the right foot. • c. After administering […] to each subject, the time at which pain behavioral responses (licking, biting, etc.) appeared was measured in the intervals of 0 to 5 minutes and 20 to 40 minutes. • d. Grooming in regions other than the region where formalin was administered was not counted. • e.\nThe formalin test is a method of evaluating the degree of pain by subcutaneously injecting formalin into the dorsum of the hind paw of a mouse and then observing the behavior that appears thereafter. The degree of pain is evaluated by the number of times or duration of flinching responses. […]"}, "CIPN pain model": {"tested_on": "CIPN pain model", "assay": "CIPN (paclitaxel) pain model, Von Frey test", "assay_type": "in vivo, SD rat", "conditions": "one, three and seven hours after administration, FIG. 8", "description": "• a. […] Preparation of positive control material: Prebabalin was homogeneously dissolved in a saline solution at a concentration of 30 mg/10 mL and used. • e.\n• a. […] Chemotherapy induced peripheral neuropathy (CIPN) pain modeling\nPaclitaxel was dissolved at 2 mg/10 ml in a solution prepared by mixing cremophor EL and absolute ethanol at a 1:1 ratio, and the resulting solution was administered intraperitoneally in the amount of 2 ml each. Chemotherapy-induced pain was induced by administering paclitaxel once a day at 24-hour intervals for 4 days. • c. Confirmation of pain induction\nDrug administration and confirmation of analgesic efficacy\nStatistical analysis processing"}, "CCI pain model": {"tested_on": "CCI pain model", "assay": "CCI pain model, Von Frey test", "conditions": "amount printed 1 mg/ml (0.1 mg/mL, 200 μL I.P.); two hours after administration; FIG. 6"}, "[1]": {"conditions": "CHO-K1, read-out: hTRPV1 activity inhibited compared to the control group"}}, "note": "Entries after “also recorded” stand apart in the source; their conditions may differ. Residues, ends and D or L forms follow the SMILES beside them. No end group written: not given here."}
{"molecule": "C[C@H](NC(=O)[C@H](CCCCN)NC(=O)[C@@H](N)Cc1ccc(O)cc1)C(=O)N[C@@H](CC(N)=O)C(=O)N[C@@H](Cc1ccc(O)cc1)C(=O)N[C@@H](CS)C(=O)N[C@@H](CO)C(=O)NCC(=O)N[C@@H](CCC(N)=O)C(=O)N[C@@H](CS)C(=O)N[C@@H](Cc1ccc(O)cc1)C(=O)O", "note": "[SEQ ID NO: 5, YKANYCSGQCY] (H-YKANYCSGQCY-OH; N-terminus and C-terminus assumed)", "values": [{"measurement": "inhibition at 0.001 µM", "setting": "hTRPV1; [1]", "result": "~20", "unit": "%"}, {"measurement": "inhibition at 0.005 µM", "setting": "hTRPV1; [1]", "result": 53, "unit": "%"}, {"measurement": "inhibition at 0.01 µM", "setting": "hTRPV1; CHO-K1, peptide at 10 nM, read-out: hTRPV1 activity inhibited compared to the control group", "result": 75, "unit": "%"}, {"measurement": "inhibition at 0.05 µM", "setting": "hTRPV1; CHO-K1, peptide at 50 nM, read-out: hTRPV1 activity inhibited compared to the control group", "result": 79, "unit": "%"}, {"measurement": "inhibition at 0.1 µM", "setting": "hTRPV1; [1]", "result": 77, "unit": "%"}, {"measurement": "inhibition at 0.5 µM", "setting": "hTRPV1; CHO-K1, peptide at 500 nM, read-out: hTRPV1 activity inhibited compared to the control group", "result": 95, "unit": "%"}, {"measurement": "influx of calcium into TRPV1 channel (ΔF/F)", "setting": "hTRPV1", "result": "the influx of calcium was significantly reduced"}, {"measurement": "TRPV1 inhibitory activity / inhibition rate (screening)", "setting": "hTRPV1", "result": "high inhibition rate of TRPV1"}, {"measurement": "pain behavioral response (licking, biting) after capsaicin", "setting": "pain caused by capsaicin", "result": "significant decrease of the pain behavioral response; also recorded: inhibited the pain caused by the peripheral and central sensitization"}]}
{"molecule": "AGQCYMFMQKY [SEQ ID NO: 9]", "values": [{"measurement": "TRPV1 inhibitory activity / inhibition rate (screening)", "setting": "hTRPV1", "result": "high inhibition rate of TRPV1"}, {"measurement": "pain behavioral response (licking, biting) after capsaicin", "setting": "pain caused by capsaicin", "result": "inhibited the pain caused by the peripheral and central sensitization"}]}
{"molecule": "SGQCYMFMQKY [SEQ ID NO: 6, SGQCYMFMQKY]", "values": [{"measurement": "inhibition at 0.0005 µM", "setting": "hTRPV1; CHO-K1, peptide at 0.5 nM, read-out: hTRPV1 activity inhibited compared to the control group", "result": "~9", "unit": "%"}, {"measurement": "inhibition at 0.001 µM", "setting": "hTRPV1; [1]", "result": 16, "unit": "%"}, {"measurement": "inhibition at 0.005 µM", "setting": "hTRPV1; [1]", "result": 51, "unit": "%"}, {"measurement": "inhibition at 0.1 µM", "setting": "hTRPV1; [1]", "result": 70, "unit": "%"}, {"measurement": "influx of calcium into TRPV1 channel (ΔF/F)", "setting": "hTRPV1", "result": "the influx of calcium was significantly reduced"}, {"measurement": "TRPV1 inhibitory activity / inhibition rate (screening)", "setting": "hTRPV1", "result": "high inhibition rate of TRPV1"}, {"measurement": "pain behavioral response (licking, biting) after capsaicin", "setting": "pain caused by capsaicin", "result": "significant decrease of the pain behavioral response; also recorded: inhibited the pain caused by the peripheral and central sensitization"}]}
{"molecule": "YGQCYMWMQKW [SEQ ID NO: 11]", "values": [{"measurement": "pain behavioral response threshold (Von Frey), after vs before administration", "setting": "SNL pain model", "result": "the pain behavioral response threshold increased after the administration compared to before the administration"}, {"measurement": "pain behavioral response (licking, biting) after formalin", "setting": "pain caused by formalin; 8 mg/kg I.P. one hour before 2% formalin", "result": "significant decrease of the pain behavioral response in the 2nd phase"}, {"measurement": "TRPV1 inhibitory activity / inhibition rate (screening)", "setting": "hTRPV1", "result": "high inhibition rate of TRPV1"}, {"measurement": "pain behavioral response threshold (Von Frey), after vs before administration", "setting": "CIPN pain model; 4 mg/kg I.P.", "result": "the pain behavioral response threshold increased after the administration compared to before the administration"}, {"measurement": "pain behavioral response threshold (Von Frey), after vs before administration", "setting": "CCI pain model", "result": "the pain behavioral response threshold increased after the administration compared to before the administration"}, {"measurement": "pain behavioral response (licking, biting) after capsaicin", "setting": "pain caused by capsaicin", "result": "significant decrease of the pain behavioral response; also recorded: inhibited the pain caused by the peripheral and central sensitization"}]}
{"molecule": "YGQCYMYMQKW [SEQ ID NO: 12]", "values": [{"measurement": "pain behavioral response threshold (Von Frey), after vs before administration", "setting": "SNL pain model", "result": "the pain behavioral response threshold increased after the administration compared to before the administration"}, {"measurement": "pain behavioral response (licking, biting) after formalin", "setting": "pain caused by formalin; 4 mg/kg I.P. one hour before 2% formalin", "result": "significant decrease of the pain behavioral response in the 2nd phase"}, {"measurement": "TRPV1 inhibitory activity / inhibition rate (screening)", "setting": "hTRPV1", "result": "high inhibition rate of TRPV1"}, {"measurement": "pain behavioral response threshold (Von Frey), after vs before administration", "setting": "CIPN pain model; 2 mg/kg I.P.", "result": "the pain behavioral response threshold increased after the administration compared to before the administration"}, {"measurement": "pain behavioral response threshold (Von Frey), after vs before administration", "setting": "CCI pain model", "result": "the pain behavioral response threshold increased after the administration compared to before the administration"}]}
